# US20040192782A1, “Erucamide compounds for the treatment and prevention to disturbances of the secretory system” (priority 2001, published 2004)
# Assays:
# [1] = tested on: cholera toxin induced diarrhea in the jejunum of the rat; details: in vivo
# CSF production = details: in vivo; cited from earlier work
# [2] = tested on: transport of Na+ from plasma to CSF; assay: CSF production measured as 22Na+ transport from plasma to CSF after intraventricular administration; format: in vivo, rat; details: 5 μl/min, 300 g rats under halothan, 22Na+ i.v. 30 min after erucamide
# Source text: Effect of erucamide and analogues thereof on CSF production Production of CSF depends mainly on active transport of Na^+ from the blood to the brain ventricles (Davson and Segal, 1970). Water then follows the net transport of Na^+ and other ions to maintain osmotic balance. Therefore, formation of CSF is directly proportional to Na^+ transport into the ventricular cavities. A simple technique to measure CSF production is to determine the turnover of plasma Na^+ into CSF. The method involves maintenance of a steady state level of ^22Na^+ in plasma and sampling ^22Na^+ in the CSF at various times after injection of the isotope (Knuckey et al., 1991). […] A 2-3 mm long micro-dialysis tubing, connecting 2 polyethylene tubings, was permanently placed in the cisterna magna for sampling of CSF. […] Blood samples were taken from the tail veins at 15, 30, 90 and 180 min. Blood and CSF samples were analyzed for radioactivity. Intraventricularly administered erucamide reduced by over 40% the transport of Na^+ from plasma to CSF.
smiles,measurement,setting,value
"CCCCC/C=C\C/C=C\C/C=C\C/C=C\CCCC(=O)O [Arachidonic acid, reference compound]",Antisecretory activity relative to erucamide activity,[1],less than 20 % of the erucamide activity
"CCCCCCCC/C=C\CCCCCCCCCCCC(=O)O [Erucic acid, cis-13-docosenoic acid, reference compound]",Antisecretory activity in the rat intestine model (in words),[1],does not display any antisecretory activity
CC(=O)Nc1nnc(S(N)(=O)=O)s1 [aztzoiamide],Inhibition of CSF production,CSF production,50%
"CCCCCCCC/C=C\CCCCCCCCCCCC(N)=O [erucamide, cis-13-docosenoamide]","Dose giving maximal antisecretory activity, expressed as concentration",[1],0.3 pM
same,Dose giving maximal antisecretory activity,[1]; iv,1×10^−10 g/kg/dose
same,Maximal antisecretory activity (inhibition of cholera toxin induced diarrhea),[1]; iv,75 % inhibition
same,Reduction of transport of Na+ from plasma to CSF,[2],over 40%
